Laboratory results reported in patent publication US10150737B2, “Compounds for controlling arthropods” (priority 2013, dated 2018).

Tests used:
[1] = logP determination by HPLC on a reversed-phase column (C18); type: physicochemical; conditions: for logP^a): HPLC-MS method a); for log P: HPLC-MS
Rhipicephalus sanguineus = Rhipicephalus sanguineus - in vitro contact tests with adult brown dog ticks; type: in vivo; conditions: after 48 h, ticks dead or moribund
Method in brief: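 Efficacy, scored after 48 h, is the % of adult ticks dead or moribund, i.e. unable to climb away on a 45-50° C hotplate within 5 min. Tubes held 5-10 ticks in the dark at room temperature, on an acetone-applied coating of 5 μg/cm^2 (900 ppm solution).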

Ctenocephalides felis [2] = experiment: Ctenocephalides felis - in vitro contact tests with adult cat fleas; type: in vivo; conditions: application rate 5 μg/cm2 (=500 g/ha); after 48 h; fleas dead or moribund
Method in brief: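 Efficacy, as percentage of fleas dead or moribund, was scored at 48 h by knocking fleas to the tube base. Exposure was by contact with a dried acetone film of compound at 5 μg/cm^2 area dose; 5–10 adults per tube, room temperature, ambient humidity.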

Amblyomma hebraeum = experiment: Amblyomma hebaraeum test (tick nymphs, immersion); type: in vivo; conditions: application rate 100 ppm; tick nymphs immersed one minute; after 42 days
Method in brief: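 Mortality (%) is read 42 days post-treatment, where 0% means no ticks and 100% all ticks killed. Nymphs were dipped for 1 min into the test dilution (DMSO stock diluted with water) and afterwards stored on filter paper under controlled climate.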

Boophilus microplus = Boophilus microplus - injection test; type: in vivo; conditions: application rate 20 μg/animal; injection into engorged adult female ticks; after 7 days
Method in brief: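 Five engorged adult female cattle ticks each received a 1 μl abdominal injection of compound solution in dimethyl sulphoxide. Fertile egg laying was assessed at 7 days, with doubtful eggs incubated about 42 days until hatch. 0% efficacy means all eggs fertile.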

[3] = tested on: Boophilus microplus Parkhurst strain, SP-resistant; experiment: Boophilus microplus - dip test; type: in vivo; conditions: application rate 100 ppm; dip of engorged adult female ticks; after 7 days
Method in brief: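 Compound dissolved in DMSO, diluted with water, and used to fully wet groups of 8-10 engorged female cattle ticks (SP-resistant Parkhurst strain). Fertile egg laying assessed at 7 days, doubtful eggs held ~42 days until hatch; 0% means all eggs fertile.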

Ctenocephalides felis [4] = experiment: Ctenocephalides felis - oral test; type: in vivo; conditions: application rate 100 ppm in citrated cattle blood; after 2 days
Method in brief: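 Roughly 20 unfed adult C. felis imbibe compound-dosed citrated cattle blood (DMSO formulation) across parafilm from a cylinder above their gauze chamber; percentage mortality recorded at day 2.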

Lucilia cuprina = Lucilia cuprina test; type: in vivo; conditions: application rate 100 ppm; L1 larvae; after 2 days
Method in brief: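 Mortality (%) of first-instar blowfly larvae, about 20 per vessel, recorded 2 days after exposure to compound-treated minced horsemeat. Compound dissolved in dimethyl sulphoxide, then water-diluted to the desired concentration.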

Musca domestica = Musca domestica test; type: in vivo; conditions: application rate 100 ppm; adult houseflies; after 2 days
Method in brief: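 10 adult flies per vessel; sugar-solution sponge dosed with active ingredient formulation (DMSO concentrate diluted in water to desired concentration). Read-out: % kill at 2 days.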

Myzus persicae = Myzus persicae - spray test; type: in vivo; conditions: Chinese cabbage leaf discs, after 6 days
Method in brief: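 Mortality of the green peach aphid, as % killed, was read 6 days after spraying infested Brassica pekinensis leaf discs. Compound formulated in acetone/dimethylformamide and made up with emulsifier-containing (1000 ppm) water.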

Phaedon cochleariae = Phaedon cochleariae - spray test; type: in vivo; conditions: larvae on Chinese cabbage leaf discs, after 7 days
Method in brief: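 Mortality of mustard beetle larvae was scored as % at day 7 on Brassica pekinensis leaf discs. Discs had been treated by spraying at the desired concentration, using an acetone/dimethylformamide solution diluted in water with 1000 ppm alkylaryl polyglycol ether, and dried before larvae were added.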

Spodoptera frugiperda = Spodoptera frugiperda - spray test; type: in vivo; conditions: caterpillars on maize leaf discs, after 7 days
Method in brief: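 Percent mortality of Spodoptera frugiperda caterpillars scored 7 days after placing them on dried maize leaf discs sprayed at the desired concentration. Spray formulation: compound dissolved in acetone/dimethylformamide, made up with water containing 1000 ppm emulsifier.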

Tetranychus urticae = Tetranychus urticae - spray test, OP-resistant; type: in vivo; conditions: bean leaf discs, after 6 days
Method in brief: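 Mortality (%) read on day 6 after spraying Phaseolus vulgaris leaf discs carrying all mite stages with formulations at the desired concentration. Formulation: active ingredient in acetone plus dimethylformamide, made up with emulsifier-containing water (1000 ppm alkylaryl polyglycol ether).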

[5] = reversed-phase column (C18), Table I-T3

Row | Compound | logP^a) [1] | logP^a) [1, 5] | efficacy (Rhipicephalus sanguineus; application rate 5 μg/cm2) | efficacy (Ctenocephalides felis [2]) | efficacy (kill) (Amblyomma hebraeum) | efficacy (laying of fertile eggs) (Boophilus microplus) | efficacy (laying of fertile eggs) [3] | efficacy (kill) (Ctenocephalides felis [4]) | efficacy (kill) (Lucilia cuprina) | efficacy (kill) (Musca domestica) | efficacy (Myzus persicae; application rate 100 g/ha) | efficacy (Phaedon cochleariae; application rate 100 g/ha) | efficacy (Spodoptera frugiperda; application rate 100 g/ha) | efficacy (Tetranychus urticae; application rate 100 g/ha) | log P [1, 5] | efficacy (Myzus persicae; application rate 500 g/ha) | efficacy (Phaedon cochleariae; application rate 500 g/ha) | efficacy (Spodoptera frugiperda; application rate 500 g/ha) | efficacy (Tetranychus urticae; application rate 500 g/ha) | other results
1 | Cc1cc(C(F)(C(F)(F)F)C(F)(F)F)cc(C(F)(F)F)c1-n1cc(-c2ccc(Cl)c(C(=O)NC3(C#N)CC3)c2)cn1 [I-T3-55] | 4.3 | 4.3 | 100% | 100% | 100% | 100% | 100% | 100% | 100% | 100% | 100% | 100% | 100% | 100% | – | – | – | – | – | –
2 | Cc1cc(C(F)(C(F)(F)F)C(F)(F)F)cc(Cl)c1-n1cc(-c2ccc(Cl)c(C(=O)NC3(C#N)CC3)c2)cn1 [I-T3-64] | 4.2 | 4.2 | – | 100% | 100% | 100% | 100% | 100% | 100% | 100% | 90% | 100% | 100% | 100% | – | – | – | – | – | efficacy (Rhipicephalus sanguineus; application rate 0.2 μg/cm2): 80%
3 | CCc1cc(C(F)(C(F)(F)F)C(F)(F)F)cc(Cl)c1-n1cc(-c2ccc(Cl)c(C(=O)NC3CC3)c2)cn1 [I-T3-72] | 4.6 | 4.6 | 100% | 100% | 100% | 100% | 100% | 100% | 100% | 100% | 90% | 100% | 100% | 100% | – | – | – | – | – | –
4 | CCc1cc(C(F)(F)C(F)(F)F)cc(C)c1-n1cc(-c2ccc(Cl)c(C(=O)NC3CC3)c2)cn1 [I-T3-81] | 4.3 | 4.3 | 100% | 100% | 100% | 100% | 100% | 100% | 100% | 90% | 90% | 100% | 100% | 100% | – | – | – | – | – | –
5 | Cc1ncc(-c2cnn(-c3c(Cl)cc(C(F)(C(F)(F)F)C(F)(F)F)cc3Cl)c2)cc1C(=O)NC1CC1 [I-T3-91] | 3.3 | – | 100% | 100% | 100% | 100% | 100% | 100% | 100% | 100% | – | – | – | – | 3.3 | 90% | 100% | 100% | 100% | –
6 | Cc1ncc(-c2cnn(-c3c(Cl)cc(C(F)(C(F)(F)F)C(F)(F)F)cc3Cl)c2)cc1C(=O)NC1(C#N)CC1 [I-T3-92] | 3.4 | – | 80% | 100% | 100% | 100% | 100% | 100% | 100% | 100% | – | – | – | – | 3.4 | 100% | 100% | 100% | 100% | –
7 | Cc1cc(C(F)(C(F)(F)F)C(F)(F)F)cc(C)c1-n1cc(-c2cnc(C)c(C(=O)NC3CC3)c2)cn1 [I-T3-96] | 3.3 | – | 100% | 100% | 100% | 100% | 100% | 100% | 100% | 100% | 90% | – | – | – | 3.3 | – | 100% | 100% | 100% | –
8 | Cc1cc(C(F)(C(F)(F)F)C(F)(F)F)cc(C)c1-n1cc(-c2cnc(C)c(C(=O)NC3(C#N)CC3)c2)cn1 [I-T3-97] | 3.4 | – | 100% | 100% | 100% | 100% | 100% | 100% | 100% | 100% | – | – | – | – | 3.4 | 90% | 100% | 100% | 100% | –
9 | O=C(NC1CC1)c1cc(-c2cnn(-c3c(Cl)cc(C(F)(F)F)cc3Cl)c2)cnc1Cl [I-T3-98] | 3.1 | – | 100% | 100% | 100% | 100% | 100% | 100% | 100% | 90% | 90% | – | – | – | 3.1 | – | 100% | 100% | 100% | –
10 | Cc1cc(C(F)(C(F)(F)F)C(F)(F)F)cc(C(F)(F)F)c1-n1cc(-c2cnc(Cl)c(C(=O)NC3CC3)c2)cn1 [I-T3-106] | – | – | 100% | 100% | 100% | 100% | 100% | 100% | 100% | 100% | – | – | – | – | 4.0 | 100% | 100% | 100% | 100% | logP^a) ([1]; reversed-phase column (C18)): 4.0
11 | Cc1cc(C(F)(C(F)(F)F)C(F)(F)F)cc(C(F)(F)F)c1-n1cc(-c2cnc(Cl)c(C(=O)NC3(C#N)CC3)c2)cn1 [I-T3-108] | – | – | – | 100% | 100% | 100% | 100% | 100% | 100% | 100% | – | – | – | – | 4.0 | 100% | 100% | 100% | 100% | logP^a) ([1]; reversed-phase column (C18)): 4.0; efficacy (Rhipicephalus sanguineus; application rate 1 μg/cm2): 100%
12 | CCc1cc(C(F)(C(F)(F)F)C(F)(F)F)cc(C)c1-n1cc(-c2cnc(Cl)c(C(=O)NC3CC3)c2)cn1 [I-T3-109] | – | – | 100% | 100% | 100% | 100% | 100% | 100% | 100% | 100% | – | – | – | – | 4.2 | 90% | 100% | 100% | 100% | logP^a) ([1]; reversed-phase column (C18)): 4.2
